In patent US20250312407A1, “PEPTIDE AND USE THEREOF” (AJINOMOTO CO., INC., priority 2019, published 2025):

What was measured:
Assay type in all cases: in vivo, mouse
male KK-Ay mice [1] = test: Intestine permeability (plasma FD-4 after oral FITC-dextran); details: 100 mg/kg oral, vs vehicle group
Method: The administration medium (0.5% methylcellulose; vehicle) or compound 1 (100 mg/kg) was orally administered to male KK-Ay mice (11 weeks old) that had been fasted from 10 o'clock the day before, and FITC-dextran (FD-4) (300 mg/kg) was orally administered 1 hr later. Blood was collected from the tail vein 1 hr and 2 hr after FD-4 administration, and the plasma FD-4 concentration was measured.

FGF21 = FGF21 secretion promoting action (plasma FGF21 concentration); details: 30 mg/kg by gavage, C57BL/6J mice, portal vein, 120 min after administration, vs vehicle group
Method: The administration medium (0.5% methylcellulose; vehicle) or compound 1 (30 mg/kg) was administered by gavage to male C57BL/6J mice (8 weeks old) that had been under fasting treatment for 6 hr. Blood was collected from the portal vein before administration and 120 min after administration, and the plasma FGF21 concentration was measured.

male KK-Ay mice [2] = test: Insulin tolerance test (ITT); details: 30 mg/kg oral, insulin 0.5 U/kg s.c. 1 hr later, profile and ΔAUC vs vehicle group
Method: The administration medium (0.5% methylcellulose; vehicle) or compound 1 (30 mg/kg) was orally administered to male KK-Ay mice (7 to 12 weeks old) that had been fasted from 17 o'clock the day before, and insulin (0.5 U/kg) was subcutaneously administered 1 hr later. Blood was collected from the tail vein before administration, and 15, 30, 60, 120 and 180 min after administration, and the blood glucose level was measured. The blood glucose level was also measured for compounds 2 to 6 by a similar method. The results of the area under curve (ΔAUC) of the blood glucose level profile calculated with the 0-minute value as the standard are shown in FIG. 3(b).

male C57BL/6J mice = test: Oral glucose tolerance test (OGTT); details: 30 mg/kg oral
Method: The administration medium (0.5% methylcellulose; vehicle) or compound 1 (30 mg/kg) was orally administered to male C57BL/6J mice (7 weeks old) that had been fasted from 17 o'clock the day before, and 2 g/kg of glucose was orally administered by gavage 1 hr later. Blood was collected from the tail vein before administration, and 15, 30, 60, 120 and 180 min after administration, and the blood glucose level was measured.
The blood glucose level after glucose loading remained low in the compound 1 administration group from 30 min after loading and thereafter. The results of the area under curve (ΔAUC) of the blood glucose level profile calculated with the 0-minute value as the standard are shown in FIG. 2.

acetyl-L-carnitine = test: Anti-stress, neuroprotective action (plasma acetyl-L-carnitine after restraint stress); details: 30 mg/kg oral after 3 hr restraint stress, C57BL/6J mice, 120 min after administration, vs vehicle group
Source text: Male C57BL/6J mice (9-week-old) that had been under fasting treatment overnight were housed in a restraint stress cage for mice, and allowed to stand for 3 hr. […] Acetyl-L-carnitine is an endogenous metabolite known to have an anti-stress and neuroprotective action (e.g., Nasca C et al., “L-acetylcarnitine causes rapid antidepressant effects through the epigenetic induction of mGlu2 receptors”, Proc. Natl. Acad. Sci. USA, 2013 Mar. 19; 110 (12): 4804-4809; and Kazak F et al., “Neuroprotective effects of acetyl-1-carnitine on lipopolysaccharide-induced neuroinflammation in mice: Involvement of brain-derived neurotrophic factor”, Neuroscience Letters, 2017 Sep. 29; 658:32-36, which are incorporated herein by reference in their entireties).

[3] = test system: ornithine/citrulline ratio; test: Anti-fatigue action (plasma ornithine/citrulline ratio); details: 30 mg/kg by gavage, C57BL/6J mice, portal vein, 120 min after administration, vs vehicle group
Method: The administration medium (0.5% methylcellulose; vehicle) or compound 1 (30 mg/kg) was administered by gavage to male C57BL/6J mice (7 weeks old) that had been under fasting treatment overnight. Blood was collected from the portal vein 120 min after administration, and the plasma ornithine and citrulline concentrations were measured. The ornithine/citrulline ratio in plasma is known as a biomarker that increases during fatigue such as chronic fatigue syndrome and the like (e.g., Yamano E et al., “Index markers of chronic fatigue syndrome with dysfunction of TCA and urea cycles”, Scientific Reports, 2016 Oct. 11; 6:34990, doi: 10.1038/srep34990, which is incorporated herein by reference in its entirety).

“LIVTQTMKGL (Designed peptide) [compound 1]” was tested, and the “blood FD-4 concentration” value (male KK-Ay mice [1]; 1 hr after oral FD-4 (300 mg/kg)) was “suppression of an increase in the blood FD-4 concentration was observed”, the “blood FD-4 concentration” value (male KK-Ay mice [1]; 2 hr after oral FD-4 (300 mg/kg)) was “suppression of an increase in the blood FD-4 concentration was observed” and the “blood FGF21 concentration” value (FGF21) was “increase in the blood FGF21 concentration was confirmed”. The “blood glucose level after insulin (insulin sensitivity improving effect), ITT” value (male KK-Ay mice [2]) was “significant decrease in blood glucose”, the “area under curve (ΔAUC) of the blood glucose level profile, OGTT” value (male C57BL/6J mice; 0-minute value as the standard, vs vehicle group) was “low value as compared with the vehicle group” and the “blood glucose level after glucose loading” value (male C57BL/6J mice; 2 g/kg glucose 1 hr later, from 30 min after loading) was “remained low”. For the same sequence, the “blood acetyl-L-carnitine concentration” value (acetyl-L-carnitine) was “increase in the blood acetyl-L-carnitine concentration was observed” and the blood ornithine/citrulline ratio [3] was “decreased”.
